Test results as given in US9949976B2, “Kinase inhibitor and use thereof” (Sihuan Pharmaceutical Holdings Group Ltd., priority 2013, dated 2018).
Read-outs that look alike come from different tables or passages of the source.

Columns and labels:
[1] = Pharmacokinetics in nude mouse (IV and PO); assay type: in vivo; settings: female, BALB/c nude, plasma; for bioavailability: read-out: F (absolute bioavailability)
Description: Test animal: female nude mouse (BALB/c); control agent: 3 mice/administration route at each time point, weight: 22-25 g/mouse; Compound 1: 3 mice/administration route at each time point, weight: 22-25 g/mouse; Compound 6-1: 6 mice/administration route/test compound, weight: 18-26 g/mouse.
Control agent/Compound 1, IV administration group: before administration, 0.083, 0.25, 0.5, 1, 2, 4, 6, 8, 24, and 30 h after administration; PO administration group (10 mg/kg): before administration, 0.167, 0.5, 1, 2, 4, 6, 8, 24, and 30 h after administration.
Compound 1, PO administration group (100 mg/kg): 0.167, 0.5, 1, 2, 4, 6, 8, 24, 30, and 48 h after administration.
Compound 6-1, IV administration group (2.5 mg/kg) and PO administration group (10 mg/kg): 0.083, 0.25, 0.5, 1, 2, 4, 6, 8 and 24 h after administration; Compound 6-1, PO administration group (100 mg/kg): 0.083, 0.25, 0.5, 1, 2, 4, 6, 8, 24, 30, 48 h after administration.
Control agent/Compound 1: 300 μL whole blood was collected from intraocular canthus at each time point, and was centrifuged at 8000 r/min for 6 min in a high speed centrifuge to separate the plasma; the plasma was stored in a refrigerator at −80° C. Compound 6-1: 60 μL whole blood was collected from intraocular canthus at each time point, and was placed in an anticoagulation tube containing anticoagulant agent K2EDTA; the blood sample was centrifuged at 8000 r/min for 6 min to obtain a plasma sample.
The plasma samples of control agent and compound 1 were analyzed by precipitation of protein: to 50 μL plasma, 200 μL internal standard (acetonitrile solution containing 500 ng/mL Warfarin) was added; the resultant mixture was vortexed for 3 min at 1500 r/min, and centrifuged for 5 min at 13000 r/min; to 100 μL supernatant, 400 μL water was added; the resultant mixture was mixed homogeneously under vortexing and analyzed by LC-MS/MS.
The plasma sample of compound 6-1 was analyzed by precipitation of protein: to a suitable amount of plasma, a given volume of internal standard solution was added; the resultant mixture was vortexed and centrifuged; the supernatant was diluted by adding a given volume of water; the resultant mixture was mixed homogeneously under vortexing and analyzed by LC-MS/MS.

[2] = test system: MDA-MB-435S human melanoma cell; test: BrdU cell proliferation assay (Cell Signaling kit); assay type: cell-based; settings: 72 h, read-out: In vitro cell-inhibiting activity IC50 MDA-MB-435S
Description: (§1) Experimental method: cell proliferation assay was carried out by BrdU method (BrdU cell proliferation assay kit, Cell Signaling Technology Company).
(§2) Preparation of gradient dilution solutions of test compound: the stock solution containing 10 mM test compound was subjected to 4-fold stepwise dilution with DMSO to prepare solutions containing 2.5 mM, 625 μM, 156 μM, 39 μM, 9.8 μM, and 2.5 μM test compound, respectively. 2 μL DMSO-diluted compound was added to 198 μL culture medium containing 10% FBS to prepare […] test compound, wherein the maximum concentration of the test compound was 100 μM, the concentration of DMSO was 1%, and there were 7 concentration gradients.
MDA-MB-435S medium: L-15+10% FBS+0.01 mg/mL insulin
(§3) (1) Cells grown to 80% confluence (in exponential growth phase) were digested with pancreatin, and centrifuged to collect the cells. MDA-MB-435S and U87MG cells were re-suspended in FBS-free culture medium, counted, and seeded to a 96-well plate; MDA-MB-435S cells were seeded at 3000 cells/well/81 μL; U87MG cells were seeded at 4000 cells/well/81 MCF-7 cells were resuspended in culture medium containing 1% FBS, and counted and seeded to a 96-well plate, at 4000 cell/well/82 μL. The plates were placed in a cell incubator at 37° C. […]
(§4) (9) To each well, stop solution (100 μL) was added, and OD value at 450 nm was measured by ELISA instrument […]

[3] = test system: MCF-7 human breast cancer cell; test: BrdU cell proliferation assay (Cell Signaling kit); assay type: cell-based; settings: MCF7, 72 h, read-out: In vitro cell-inhibiting activity IC50 MCF-7
Description: as §1, §2
MCF-7 medium: DMEM+10% FBS+0.01 mg/mL insulin
as §3, §4

[4] = test system: U87MG human glioblastoma cell; test: BrdU cell proliferation assay (Cell Signaling kit); assay type: cell-based; settings: U-87 MG, 72 h, read-out: In vitro cell-inhibiting activity IC50 U87MG
Description: as §1, §2
U87MG medium: MEM+10% FBS
as §3, §4

CDK6/D3 = CDK6/D3 (Homo sapiens, UniProt Q00534); test: In vitro enzyme-inhibiting activity, Caliper Mobility Shift method; assay type: biochemical; settings: read-out: CDK enzyme-inhibiting activity IC50 CDK6/D3
Sequence of CDK6/D3 (Q00534 whole entry): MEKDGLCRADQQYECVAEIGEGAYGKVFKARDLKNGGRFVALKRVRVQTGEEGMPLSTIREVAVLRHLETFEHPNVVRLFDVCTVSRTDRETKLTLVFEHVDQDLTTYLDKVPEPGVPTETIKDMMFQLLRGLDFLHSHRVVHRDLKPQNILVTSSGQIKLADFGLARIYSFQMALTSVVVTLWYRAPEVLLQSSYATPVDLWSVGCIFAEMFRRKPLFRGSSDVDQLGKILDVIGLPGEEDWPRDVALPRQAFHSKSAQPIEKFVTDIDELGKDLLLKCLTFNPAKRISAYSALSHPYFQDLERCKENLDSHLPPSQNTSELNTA
Sequence of CDK6/D3 (P30281 whole entry partner): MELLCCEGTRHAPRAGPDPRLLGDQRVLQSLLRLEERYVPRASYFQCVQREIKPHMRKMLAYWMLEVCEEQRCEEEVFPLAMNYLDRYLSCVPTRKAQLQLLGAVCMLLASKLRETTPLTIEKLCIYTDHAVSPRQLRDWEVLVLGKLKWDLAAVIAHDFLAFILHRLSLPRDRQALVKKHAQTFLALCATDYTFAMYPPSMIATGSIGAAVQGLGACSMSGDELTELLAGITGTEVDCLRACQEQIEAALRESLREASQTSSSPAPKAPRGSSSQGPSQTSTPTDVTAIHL
Description: (§5) Measurement of activity for inhibiting CDK4/6 kinase by Caliper Mobility Shift method.
50 mL stock solution containing 1000 mM HEPES (pH 7.5), and 50 μL stock solution containing 30% Brij-35, were added to 949.95 mL ultra pure water, and the resultant mixture was mixed homogeneously.
(§6) 25 mL stock solution containing 4% Coating Reagent #3 (provided with the 12-sipper chip used in Caliper device), 50 mL stock solution containing 1000 mM HEPES (pH 7.5), 50 mL stock solution containing 0.5 M EDTA, and 0.25 mL stock solution containing 30% Brij-35, were added to 374.75 mL ultra pure water, and the resultant mixture was mixed homogeneously.
18 μL CDK6/D3 enzyme solution, and 14 μL stock solution containing 1M DTT were added to 2768 μL 1-fold CDK6 kinase buffer, and the resultant mixture was mixed homogeneously.
23 μL stock solution containing 100 mM ATP, 75 μL stock solution containing 1M MgCl2, and 75 μL FAM-tagged polypeptide 8, were added to 2827 μL 1-fold CDK6 kinase buffer, and the resultant mixture was mixed homogeneously.
(§7) DMSO solution containing 10 mM test compound was diluted with DMSO to a solution containing 50 μM test compound (which was used as a stock solution).
(§8) 1) 5 μL 5-fold test compound solution and 10 μL 2.5-fold kinase solution were added to the corresponding wells in a 384-well plate, and incubated at room temperature for 10 min.
(§9) 2) To the corresponding wells, 10 μL 2.5-fold polypeptide solution was added to start the enzymatic reaction, and incubation was performed at 28° C. for 5 h.
(§10) To the corresponding wells, 25 μL stop solution was added to stop the reaction.
(§11) The data was read by Caliper device, the inhibition rate was calculated by the following formula, and curve fitting was carried out by GraphPad5.0 software to get IC50 value. Inhibition rate=(maximal value−sample value)/(maximal value−minimal value)×100, wherein, maximal value: positive control without addition of test compound; minimal value: negative control without addition of enzyme.

CDK4/D3 = CDK4/D3 (Homo sapiens, UniProt P11802); test: as above; assay type: biochemical; settings: read-out: CDK enzyme-inhibiting activity IC50 CDK4/D3
Sequence of CDK4/D3 (P11802 whole entry): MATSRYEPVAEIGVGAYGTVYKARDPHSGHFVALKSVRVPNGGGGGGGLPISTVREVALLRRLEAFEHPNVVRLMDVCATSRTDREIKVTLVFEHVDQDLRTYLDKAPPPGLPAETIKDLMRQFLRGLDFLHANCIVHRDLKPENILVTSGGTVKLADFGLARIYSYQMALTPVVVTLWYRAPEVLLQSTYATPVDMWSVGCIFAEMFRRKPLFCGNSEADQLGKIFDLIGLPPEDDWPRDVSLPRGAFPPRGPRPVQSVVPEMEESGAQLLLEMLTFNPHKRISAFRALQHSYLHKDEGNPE
Sequence of CDK4/D3 (P30281 whole entry partner): as the sequence (P30281 whole entry partner) above
Description: as §5
1) Preparation of 1-Fold Buffer for CDK4 Kinase 800 μL stock solution containing 1000 mM HEPES (pH 7.5), and 40 μL stock solution containing 10% Triton X-100, were added to 39160 μL ultra pure water, and the resultant mixture was mixed homogeneously.
as §6
7 μL CDK4/D3 enzyme solution, and 9 μL stock solution containing 1M DTT were added to 1784 μL 1-fold CDK4 kinase buffer, and the resultant mixture was mixed homogeneously.
10 μL stock solution containing 100 mM ATP, 45 μL stock solution containing 1M MgCl2, and 45 μL FAM-tagged polypeptide 8, were added to 1700 μL 1-fold CDK4 kinase buffer, and the resultant mixture was mixed homogeneously.
as §7, §8, §9, §10, §11

In the case of Cc1nc2c(F)cc(-c3cc(Nc4ncc(CN5C[C@H]6CN(C)C[C@H]6C5)cn4)ncc3F)cc2n1C(C)C [Compound 6-1, N-(5-fluoro-4-(4-fluoro-1-isopropyl-2-methyl-1H-benzo[d]imidazol-6-yl)pyridin-2-yl)-5-(((cis)-5-methylhexahydropyrrolo[3,4-c]pyrrol-2(1H)-yl)methyl)pyrimidin-2-amine], the AUC(0-t) ([1]; IV, 2.5 mg/kg) is reported as 985 ng·h/mL, the clearance ([1]; IV, 2.5 mg/kg) is reported as 40.2 mL/min/kg and the Vd ([1]; IV, 2.5 mg/kg, read-out: Vss) is reported as 12.5 L/kg. The AUC(0-t) ([1]; PO, 10 mg/kg) was 1410 ng·h/mL, the Cmax ([1]; PO, 10 mg/kg) was 300 ng/mL and the Tmax ([1]; PO, 10 mg/kg) was 2 h. For the same compound, the bioavailability ([1]; PO, 10 mg/kg) was 39.3%, the AUC(0-t) ([1]; PO, 200 mg/kg) was 90900 ng·h/mL and the Cmax ([1]; PO, 200 mg/kg) was 5370 ng/mL. The Tmax ([1]; PO, 200 mg/kg) was 2 h, the bioavailability ([1]; PO, 200 mg/kg) was 115% and the IC50 [2] was 70 nM. It also gave an IC50 [3] of 83 nM and an IC50 [4] of 47 nM.

Compound CCN1C2CCC1CN(Cc1cnc(Nc3cc(-c4cc(F)c5nc(C)n(C(C)C)c5c4)c(F)cn3)nc1)C2 [Compound 14, 5-((8-ethyl-3,8-diazabicyclo[3.2.1]octan-3-yl)methyl)-N-(5-fluoro-4-(4-fluoro-1-isopropyl-2-methyl-1H-benzo[d]imidazol-6-yl)pyridin-2-yl)pyrimidin-2-amine] has an IC50 (CDK6/D3) of 23.1 nM and an IC50 (CDK4/D3) of 2.6 nM.

For CCN1CC2CCC(C1)N2Cc1cnc(Nc2cc(-c3cc(F)c4nc(C)n(C(C)C)c4c3)c(F)cn2)nc1 [Compound 13, 5-((3-ethyl-3,8-diazabicyclo[3.2.1]octan-8-yl)methyl)-N-(5-fluoro-4-(4-fluoro-1-isopropyl-2-methyl-1H-benzo[d]imidazol-6-yl)pyridin-2-yl)pyrimidin-2-amine], the IC50 (CDK6/D3) was 31.3 nM and the IC50 (CDK4/D3) was 3 nM.
